Source: patent publication US20220160842A1, “METHOD OF TREATING INFECTIVE ENDOCARDITIS” (priority 2019, published 2022)
Counter-ions that a name gives are not always drawn.

Experiments:
Experiment in all cases: MIC by broth microdilution
S. oralis = format: cell-based, Streptococcus oralis
Description: (§1) Minimal inhibitory concentrations (MICs) of exebacase against staphylococci were determined by broth microdilution (BMD) using a nonstandard antimicrobial susceptibility testing (AST) medium comprised of cation-adjusted Mueller Hinton broth (caMHB) supplemented with horse serum (Sigma Aldrich) and dithiothreitol (DTT; Sigma Aldrich) to final concentrations of 25% and 0.5 mM, respectively. This medium, referred to as caMHB-HSD, is approved for use in exebacase AST by the Clinical and Laboratory Standards Institute (CLSI) (CLSI. 2017, Jan. 16-17. AST Subcommittee Working Group Meetings and Plenary. AST Meeting Files & Resources, clsi.org/education/microbiology/ast/ast-meeting-files-resources/. Additional supplementation with 2.5% lysed red blood cells (Remel™, ThermoFisher) was included for analyses of streptococcal isolates, as recommended by CLSI. See CLSI, 2015. Methods for Dilution Antimicrobial Susceptibility Tests for Bacteria That Grow Aerobically, 10th Edition. Clinical and Laboratory Standards Institute, Wayne, Pa.
(§2) Daptomycin (Sigma Aldrich) and vancomycin hydrochloride (Sigma Aldrich) were tested following the reference BMD method for each. See CLSI. 2015. Methods for Dilution Antimicrobial Susceptibility Tests for Bacteria That Grow Aerobically, 10th Edition. Clinical and Laboratory Standards Institute, Wayne, Pa.

E. faecalis = format: cell-based, Enterococcus faecalis
Description: as §1, §2

S. dysgalactiae = format: cell-based, Streptococcus dysgalactiae
Description: as §1, §2

S. haemolyticus = format: cell-based, Staphylococcus haemolyticus
Description: as §1, §2

S. salivarius = format: cell-based, Streptococcus salivarius
Description: as §1, §2

S. warneri = format: cell-based, Staphylococcus warneri
Description: as §1, §2

S. capitis = format: cell-based, Staphylococcus capitis
Description: as §1, §2

S. mutans = format: cell-based, Streptococcus mutans
Description: as §1, §2

S. anginosus = format: cell-based, Streptococcus anginosus
Description: as §1, §2

S. lugdunensis = format: cell-based, Staphylococcus lugdunensis
Description: as §1, §2

S. aureus (MSSA) = format: cell-based, Staphylococcus aureus
Description: as §1, §2

S. aureus (MRSA) = format: cell-based, Staphylococcus aureus
Description: as §1, §2

S. gordonii = format: cell-based, Streptococcus gordonii
Description: as §1, §2

S. mitis = format: cell-based, Streptococcus mitis
Description: as §1, §2

S. pneumoniae = format: cell-based, Streptococcus pneumoniae
Description: as §1, §2

S. sanguinis = format: cell-based, Streptococcus sanguinis
Description: as §1, §2

S. gallolyticus = format: cell-based, Streptococcus gallolyticus
Description: as §1, §2

S. pyogenes = format: cell-based, Streptococcus pyogenes
Description: as §1, §2

all staphylococci tested = format: cell-based
Description: as §2

S. agalactiae = format: cell-based, Streptococcus agalactiae
Description: as §1, §2

SMILES: CN[C@H](CC(C)C)C(=O)N[C@H]1C(=O)N[C@@H](CC(N)=O)C(=O)N[C@H]2C(=O)N[C@H]3C(=O)N[C@H](C(=O)N[C@H](C(=O)O)c4cc(O)cc(O)c4-c4cc3ccc4O)[C@H](O)c3ccc(c(Cl)c3)Oc3cc2cc(c3O[C@@H]2O[C@H](CO)[C@@H](O)[C@H](O)[C@H]2O[C@H]2C[C@](C)(N)[C@H](O)[C@H](C)O2)Oc2ccc(cc2Cl)[C@H]1O [VAN, vancomycin hydrochloride]
- MIC Range (S. oralis; S. oralis (viridans), N=15): 0.5 to 1 µg/mL
- MIC50 (S. oralis; Streptococcus oralis): 0.5 µg/mL
- MIC90 (S. oralis; Streptococcus oralis): 1 µg/mL
- MIC Range (E. faecalis; E. faecalis (formerly group D), N=18): 0.5 to 2 µg/mL
- MIC50 (E. faecalis; Enterococcus faecalis): 1 µg/mL
- MIC90 (E. faecalis; Enterococcus faecalis): 2 µg/mL
- MIC Range (S. dysgalactiae; S. dysgalactiae (group G), N=22): 0.25 to 1 µg/mL
- MIC50 (S. dysgalactiae; Streptococcus dysgalactiae): 0.5 µg/mL
- MIC90 (S. dysgalactiae; Streptococcus dysgalactiae): 0.5 µg/mL
- MIC Range (S. haemolyticus; S. haemolyticus, N=36): 0.5 to 4 µg/mL
- MIC50 (S. haemolyticus; Staphylococcus haemolyticus): 1 µg/mL
- MIC90 (S. haemolyticus; Staphylococcus haemolyticus): 2 µg/mL
- MIC Range (S. salivarius; S. salivarius (viridans), N=12): 0.25 to 0.5 µg/mL
- MIC50 (S. salivarius; Streptococcus salivarius): 0.5 µg/mL
- MIC90 (S. salivarius; Streptococcus salivarius): 0.5 µg/mL
- MIC Range (S. warneri; S. warneri, N=23): 0.25 to 2 µg/mL
- MIC50 (S. warneri; Staphylococcus warneri): 1 µg/mL
- MIC90 (S. warneri; Staphylococcus warneri): 2 µg/mL
- MIC Range (S. capitis; S. capitis, N=13): 0.5 to 2 µg/mL
- MIC50 (S. capitis; Staphylococcus capitis): 1 µg/mL
- MIC90 (S. capitis; Staphylococcus capitis): 1 µg/mL
- MIC Range (S. mutans; S. mutans (viridans), N=22): 0.25 to 1 µg/mL
- MIC50 (S. mutans; Streptococcus mutans): 1 µg/mL
- MIC90 (S. mutans; Streptococcus mutans): 1 µg/mL
- MIC Range (S. anginosus; S. anginosus (viridans), N=10): 0.5 to 1 µg/mL
- MIC50 (S. anginosus; Streptococcus anginosus): 0.5 µg/mL
- MIC90 (S. anginosus; Streptococcus anginosus): 1 µg/mL
- MIC Range (S. lugdunensis; S. lugdunensis, N=49): 0.5 to 2 µg/mL
- MIC50 (S. lugdunensis; Staphylococcus lugdunensis): 1 µg/mL
- MIC90 (S. lugdunensis; Staphylococcus lugdunensis): 1 µg/mL
- MIC Range (S. aureus (MSSA); S. aureus (MSSA), N=73): 0.5 to 1 µg/mL
- MIC50 (S. aureus (MSSA); Staphylococcus aureus, MSSA): 1 µg/mL
- MIC90 (S. aureus (MSSA); Staphylococcus aureus, MSSA): 1 µg/mL
- MIC Range (S. aureus (MRSA); S. aureus (MRSA), N=74): 1 to 2 µg/mL
- MIC50 (S. aureus (MRSA); Staphylococcus aureus, MRSA): 1 µg/mL
- MIC90 (S. aureus (MRSA); Staphylococcus aureus, MRSA): 1 µg/mL
- MIC Range (S. gordonii; S. gordonii (viridans), N=11): 0.5 to 1 µg/mL
- MIC50 (S. gordonii; Streptococcus gordonii): 0.5 µg/mL
- MIC90 (S. gordonii; Streptococcus gordonii): 1 µg/mL
- MIC Range (S. mitis; S. mitis (viridans), N=18): 0.25 to 0.5 µg/mL
- MIC50 (S. mitis; Streptococcus mitis): 0.5 µg/mL
- MIC90 (S. mitis; Streptococcus mitis): 0.5 µg/mL
- MIC Range (S. pneumoniae; S. pneumoniae, N=59): 0.25 to 0.5 µg/mL
- MIC50 (S. pneumoniae; Streptococcus pneumoniae): 0.25 µg/mL
- MIC90 (S. pneumoniae; Streptococcus pneumoniae): 0.5 µg/mL
- MIC Range (S. sanguinis; S. sanguinis (viridans), N=15): 0.5 to 2 µg/mL
- MIC50 (S. sanguinis; Streptococcus sanguinis): 0.5 µg/mL
- MIC90 (S. sanguinis; Streptococcus sanguinis): 0.5 µg/mL
- MIC Range (S. gallolyticus; S. gallolyticus (bovis), N=19): 0.25 to 0.5 µg/mL
- MIC50 (S. gallolyticus; Streptococcus gallolyticus): 0.25 µg/mL
- MIC90 (S. gallolyticus; Streptococcus gallolyticus): 0.5 µg/mL
- MIC Range (S. pyogenes; S. pyogenes (group A), N=100): 0.25 to 0.5 µg/mL
- MIC50 (S. pyogenes; Streptococcus pyogenes): 0.5 µg/mL
- MIC90 (S. pyogenes; Streptococcus pyogenes): 0.5 µg/mL
- MIC Range (all staphylococci tested): 0.5 to 4 µg/mL
- MIC Range (S. agalactiae; S. agalactiae (group B), N=97): 0.25 to 0.5 µg/mL
- MIC50 (S. agalactiae; Streptococcus agalactiae): 0.5 µg/mL
- MIC90 (S. agalactiae; Streptococcus agalactiae): 0.5 µg/mL
